Assay results reported in PubChem BioAssay (NCI).
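Protocol summary: plate cells (96-well), add compound at 5 concentrations, incubate 48 h, interpolate endpoints linearly. GI50 marks 50% less growth. TGI denotes the concentration required for complete inhibition of growth.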

Legend:
Experiment in all cases: growth of human tumour cells (NCI), 48 h
NCI-H522 lung = system: NCI-H522 lung
SK-MEL-2 melanoma = system: SK-MEL-2 melanoma
HL-60(TB) leukemia = system: HL-60(TB) leukemia
SN12C renal = system: SN12C renal
HCT-15 colon = system: HCT-15 colon
SNB-75 CNS = system: SNB-75 CNS
SNB-19 CNS = system: SNB-19 CNS
NCI-H460 lung = system: NCI-H460 lung
786-0 renal = system: 786-0 renal
KM20L2 colon = system: KM20L2 colon

Row | SMILES | GI50 (NCI-H522 lung) | TGI (NCI-H522 lung) | GI50 (SK-MEL-2 melanoma) | TGI (SK-MEL-2 melanoma) | GI50 (HL-60(TB) leukemia) | TGI (HL-60(TB) leukemia) | GI50 (SN12C renal) | TGI (SN12C renal) | GI50 (HCT-15 colon) | TGI (HCT-15 colon) | GI50 (SNB-75 CNS) | TGI (SNB-75 CNS) | GI50 (SNB-19 CNS) | TGI (SNB-19 CNS) | GI50 (NCI-H460 lung) | TGI (NCI-H460 lung) | GI50 (786-0 renal) | TGI (786-0 renal) | TGI (KM20L2 colon)
1 | CCN(CC)CC(O)c1cc(-c2ccc(Cl)cc2)nc2cc(Cl)ccc12 (centres undefined) | 1.62 µM | 3.14 µM | 1.92 µM | 3.63 µM | 2.02 µM | 3.74 µM | 2.96 µM | 12.7 µM | 3.05 µM | 9.26 µM | 1.69 µM | 7.14 µM | 4.34 µM | 16 µM | 1.64 µM | 3.17 µM | 1.9 µM | 3.41 µM | 
2 | O=C(NCCCl)NCc1ccccc1 |  | > 100 µM |  | > 100 µM |  | > 100 µM |  | > 100 µM |  | > 100 µM |  | > 100 µM |  | > 100 µM |  | > 100 µM |  | > 100 µM | 
3 | c1cnc2nc3n(c2c1)CSC3 |  | > 100 µM |  | > 100 µM |  | > 100 µM |  | > 100 µM |  | > 100 µM |  | > 100 µM |  |  |  | > 100 µM |  | > 100 µM | > 100 µM
4 | CCN(CC)CCNC(=O)C(Cl)=C1C(Cl)=C(Cl)C(Cl)=C1Cl | 1.47 µM | 3.21 µM | 3 µM | 11.6 µM | 3.35 µM | 7.06 µM | 4.03 µM | 49.8 µM | 2.78 µM | 12.7 µM | 2.21 µM | 6.78 µM | 10.9 µM | 29.6 µM | 2.71 µM | 11.1 µM | 5.07 µM | 41.7 µM | 
5 | COc1ccc2c(c1)CC1N(C)CCC13CCCCC23 (centres undefined) |  | > 100 µM |  | > 100 µM |  | > 100 µM |  | > 100 µM |  | > 100 µM |  | > 100 µM |  | > 100 µM |  | > 100 µM |  | > 100 µM | 
6 | COc1ccc2c(c1)C(=O)c1c-2c(OCCN2CCCCC2)nc2ccc(OC)cc12 | 0.523 µM | 2.11 µM | 12.4 µM | 28.6 µM | 1.08 µM | 6.64 µM | 0.429 µM | 10.1 µM | 0.54 µM | 2.63 µM | 1.27 µM | 11.2 µM | 0.66 µM | 15.1 µM | 0.286 µM | 1.1 µM | 1.04 µM | 2.59 µM | 
7 | Nc1nc(Cl)nc2c1ncn2C1OC(CO)C(O)C1O (centres undefined) | > 100 µM | > 100 µM | > 100 µM | > 100 µM | 0.374 µM | > 93.6 µM | 0.899 µM | > 100 µM | 7.57 µM | > 100 µM | > 100 µM | > 100 µM | 2.72 µM | > 100 µM | 12.6 µM | > 100 µM | 2.57 µM | > 73.4 µM | 
8 | Cn1c2c(c3ccccc31)CCN(CCCN1CCN(c3ccccc3)CC1)C2=O |  | 30.9 µM |  |  |  | 33.6 µM |  | 46.7 µM |  | 50 µM |  |  |  |  |  |  |  | 39.1 µM | 25.4 µM
9 | c1ccc(N2N=NC3C4CC(C5c6ccccc6C45)C32)cc1 (centres undefined) |  | 50.9 µM |  |  |  | 85.5 µM |  | > 100 µM |  | > 100 µM |  | > 100 µM |  | > 100 µM |  | > 100 µM |  | > 100 µM | > 100 µM
